According to patent US20240025918A1, “KRAS G12D Inhibitors” (Jacobio Pharmaceuticals Co., Ltd, priority 2020, published 2024):

Key:
AGS = experiment: Cell growth inhibition assay, AGS (CellTiter-Glo); format: cell-based; settings: Homo sapiens, 144 h; AGS cell viability, 6 days incubation
Experimental: AGS cultured in F12K medium (Gibco) containing 10% fetal bovine serum (Gibco). Cells in culture medium were plated in 96-well plates at a concentration of 500 cells/well (100 μL/well) and allowed to attach overnight.
(§1) The next day, compounds were diluted in culture medium and added to the plates. After 6 days incubation in a 37° C./5% CO2 cell incubator, the cell viability was detected by CellTiter-Glo® Luminescent Cell Viability Assay kit (Promega). Luminescent signals were read on Tecan Spark multimode microplate reader and analyzed using a 4-parameter logistic model to calculate IC50 values.

[1] = target: T1, GppNp-loaded HIS-KRAS(G12D, aa 1-169) and cRAF RBD (Homo sapiens, UniProt P01116, G12D); experiment: GTP-KRAS and cRAF interaction assay (HTRF); format: biochemical; settings: 2 hours at 25° C.
T1 construct: GppNp-loaded HIS-KRAS(G12D, aa 1-169)
Experimental: GppNp-loaded HIS-KRAS(G12D, aa 1-169) was pre-incubated with a compound in the presence of 200 μM GTP in a 384-well plate (Greiner) for 15 min, then cRAF RBD(GST tag, aa 50-132, CreativeBioMart), MAb Anti GST-d2 (Cisbio) and MAb Anti 6HIS-Tb cryptate Gold (Cisbio) were added to the assay wells (Final concentration: 2.0 nM GppNp-loaded HIS-KRAS(G12D), 100 μM GTP, 35 nM cRAF RBD, 1 μg/mL MAb Anti GST-d2, 52.5 ng/mL MAb Anti 6HIS-Tb cryptate Gold) and incubated for 2 hours at 25° C. Wells containing same percent of DMSO served as vehicle control, and wells without KRAS served as low control. HTRF signals were read on Tecan Spark multimode microplate reader and HTRF ratios were calculated under manufacturer's instructions. The percent of activation of compounds treated wells were normalized between vehicle control and low control (% Activation=(HTRF ratioCompound treated−HTRF ratioLow control)/(HTRF ratioVehicle control−HTRF ratioLow control)*100%). Then the data were analyzed by fitting a 4-parameter logistic model or calculating in Excel to calculate IC50 values.

AsPC-1 = experiment: Cell growth inhibition assay, AsPC-1 (CellTiter-Glo); format: cell-based; settings: Homo sapiens, ASPC1, 144 h; AsPC-1 cell viability, 6 days incubation
Experimental: AsPC-1 cultured in RPMI-1640 medium (Gibco) containing 10% fetal bovine serum (Gibco). Cells in culture medium were plated in 96-well plates at a concentration of 1000 cells/well (100 μL/well) and allowed to attach overnight.
as §1

[2] = system: AGS cells expressing KRAS G12D; experiment: Phospho-ERK1/2(THR202/TYR204) HTRF assay; format: cell-based; settings: Homo sapiens; Phospho-ERK1/2 in AGS cells, 2 hours incubation
Experimental: AGS cells expressing KRAS G12D were cultured in F12K medium (Gibco) containing 10% fetal bovine serum (Gibco). The AGS cells in culture medium were seeded in 96-well plates at a concentration of 40,000 cells/well and then put in a 37° C./5% CO2 cell incubator to incubate overnight. The next day, culture medium was removed and the compound diluted in assay medium (F12K, 0.1% FBS) was added in each well. After 2 hours incubation in a 37° C./5% CO2 cell incubator, the assay medium in 96-well plates was removed, then 50 μL of 1× blocking reagent-supplemented lysis buffer (Cisbio) was added and the plates were incubated at 25° C. for 45 min with shaking. 10 μL of cell lysates from the 96-well plates were transferred to a 384-well plate (Greiner) containing 2.5 μL/well HTRF® pre-mixed antibodies (Cisbio 64AERPEH). Incubate 4 hours at 25° C. and then read HTRF signals on Tecan Spark multimode microplate reader. The data were analyzed using a 4-parameter logistic model to calculate IC50 values.

[3] = target: T2, GDP-loaded HIS-KRAS(G12D, aa 1-169) (Homo sapiens, UniProt P01116, G12D); experiment: SOS1 catalyzed nucleotide exchange assay (TR-FRET); format: biochemical; settings: 4 hours at 25° C.
T2 construct: GDP-loaded HIS-KRAS(G12D, aa 1-169)
Experimental: GDP-loaded HIS-KRAS(G12D, aa 1-169) was pre-incubated with a compound in the presence of 10 nM GDPin a 384-well plate (Greiner) for 15 min, then purified SOS1 ExD(Flag tag, aa 564-1049), BODIPY™ FL GTP (Invitrogen) and MAb (monoclonal antibody) Anti 6HIS-Tb cryptate Gold (Cisbio) were added to the assay wells (Final concentration: 1.5 nM GDP-loaded HIS-KRAS(G12D), 5 nM GDP, 0.5 μM SOS1 ExD, 80 nM BODIPY™ FL GTP, 52.5 ng/mL MAb Anti 6HIS-Tb cryptate Gold) and incubated for 4 hours at 25° C. Wells containing same percent of DMSO served as vehicle control, and wells without KRAS served as low control. TR-FRET signals were read on Tecan Spark multimode microplate reader. The parameters were F486: Excitation 340 nm, Emission 486 nm, Lag time 100 μs, Integration time 200 μs; F515: Excitation 340 nm, Emission 515 nm, Lag time 100 μs, Integration time 200 μs. TR-FRET ratios for each individual wells were calculated by equation: TR-FRET ratio=(Signal F515/Signal F486)*10000. The percent of activation of compounds treated wells were normalized between vehicle control and low control (% Activation=(TR-FRET ratioCompound treated−TR-FRET ratioLow control)/(TR-FRET ratioVehicle control−TR-FRET ratioLow control)*100%). Then the data were analyzed by fitting a 4-parameter logistic model or calculating in Excel to calculate IC50 values.

T2 sequence (P01116 1-169 isoform P01116-2 G12D): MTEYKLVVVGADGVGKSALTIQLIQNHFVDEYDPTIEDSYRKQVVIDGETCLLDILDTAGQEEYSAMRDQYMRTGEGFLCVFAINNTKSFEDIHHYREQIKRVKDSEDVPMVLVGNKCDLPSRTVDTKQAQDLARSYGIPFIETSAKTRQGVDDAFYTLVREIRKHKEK
T1 sequence (P01116 1-169 isoform P01116-2 G12D): as above

| SMILES | IC50 (AGS) [nM] | IC50 [1] [nM] | IC50 (AsPC-1) [nM] | IC50 [2] [nM] | IC50 [3] [nM] |
| --- | --- | --- | --- | --- | --- |
| C#Cc1cccc2cc(O)cc(-c3ccc4c(N5CC6CCC(C5)N6)nc(OCC5(CN6CC(OC)C6)CC5)nc4c3F)c12 [Compound 31] | 26.2 | 108 | 215 | 13.4 | 23.2 |
| C#Cc1cccc2cc(O)cc(-c3c(F)cc4c(N5CC6CCC(C5)N6)nc(OCC5(CN6CCc7cccnc7C6)CC5)nc4c3F)c12 [Compound 15] | 13.9 | 157 | 97.3 | 68.9 | 6.06 |
| C#Cc1cccc2cc(O)cc(-c3c(F)cc4c(N5CC6CCC(C5)N6)nc(OCC5(CN6Cc7cccnc7C6)CC5)nc4c3F)c12 [Compound 17] | 11.8 | 273 | 158 | 56.3 | 1.99 |
| C#Cc1cccc2cc(O)cc(-c3c(F)cc4c(N5CC6CCC(C5)N6)nc(OCC5(CN6CC(OC)C6)CC5)nc4c3F)c12 [Compound 21] | 16.3 | 74.5 | 334 | 13.5 | 1.94 |
| C#Cc1cccc2cc(O)cc(-c3c(F)cc4c(N5CC6CCC(C5)N6)nc(OCC5(CN6CC7(COC7)C6)CC5)nc4c3F)c12 [Compound 19] | 12.9 | 66.9 | 710 | 19.8 | 2.27 |
| C#Cc1cccc2cc(O)cc(-c3c(F)cc4c(N5CC6CCC(C5)N6)nc(OCC5(CN6CC7(CCC7)C6)CC5)nc4c3F)c12 [Compound 20] | 23.3 | 58.1 | 264 | 39.2 | 1.33 |
| C#Cc1cccc2cc(O)cc(-c3c(F)cc4c(N5CC6CCC(C5)N6)nc(OCC5(CN6CCC7(CC6)COC7)CC5)nc4c3F)c12 [Compound 12] | 3.69 | 80.8 | 83.2 | 1.94 | 14.2 |
| C#Cc1cccc2cc(O)cc(-c3ccc4c(N5CC6CCC(C5)N6)nc(OCC5(CN6CC7CC6CO7)CC5)nc4c3F)c12 (stereo not drawn) [Compound 9] | 10.5 | 62 | 138 | 2.59 | 7.77 |
| C#Cc1c(F)ccc2cc(O)cc(-c3ccc4c(N5CC6CCC(C5)N6)nc(OCC5(CN6C7CCC6COC7)CC5)nc4c3F)c12 [Compound 7] | 5.66 | 27.2 | 72.2 | 3.53 | 6.27 |
| C#Cc1cccc2cc(O)cc(-c3c(F)cc4c(N5CC6CCC(C5)N6)nc(OCC5(CN6CC7CCCC7C6)CC5)nc4c3F)c12 (stereo not drawn) [Compound 25] | 13.2 | 51 | 96.6 | 14.7 | 1.48 |
| C#Cc1cccc2cc(O)cc(-c3c(F)cc4c(N5CC6CCC(C5)N6)nc(OCC5(CN6CC7(CCOCC7)C6)CC5)nc4c3F)c12 [Compound 22] | 19.7 | 40.2 | 413 | 6.95 | 1.39 |
| C#Cc1cccc2cc(O)cc(-c3ccc4c(N5CC6CCC(C5)N6)nc(OCC5(CN6C7CCC6COC7)CC5)nc4c3F)c12 [Compound 10] | 11.1 | 77.3 | 57.6 | 6.18 | 12.1 |
| C#Cc1cccc2cc(O)cc(-c3c(F)cc4c(N5CC6CCC(C5)N6)nc(OCC5(CN6CCC7(C6)CC7(F)F)CC5)nc4c3F)c12 (stereo not drawn) [Compound 14] | 10.7 | 79.2 | 26.5 | 182 | 4.36 |
| C#Cc1cccc2cc(O)cc(-c3c(F)cc4c(N5CC6CCC(C5)N6)nc(OCC5(CN6CCC7(CCO7)CC6)CC5)nc4c3F)c12 [Compound 11] | 15.7 | 86.6 | 214 | 9.49 | 31.6 |
| C#Cc1cccc2cc(O)cc(-c3ccc4c(N5CC6CCC(C5)N6)nc(OCC5(CN6CCC7(CC6)CC7)CC5)nc4c3F)c12 [Compound 30] | 9.77 | 133 | 81.7 | 31.5 | 28.6 |
| C#Cc1cccc2cc(O)cc(-c3c(F)cc4c(N5CC6CCC(C5)N6)nc(OCC5(CN6CC7(CCO7)C6)CC5)nc4c3F)c12 [Compound 56] | 14.9 | 53.2 | 182 | 7.66 | 2.05 |
| C#Cc1cccc2cc(O)cc(-c3c(F)cc4c(N5CC6CCC(C5)N6)nc(OCC5(CN6CCOCC67CCC7)CC5)nc4c3F)c12 [Compound 35] | 8.43 | 157 | 59.6 | 20.2 | 2.17 |
| C#Cc1cccc2cc(O)cc(-c3c(F)cc4c(N5CC6CCC(C5)N6)nc(OCC5(CN6CC7(CCCCO7)C6)CC5)nc4c3F)c12 [Compound 48] | 36.4 | 118 | 315 | 38.6 | 1.49 |
| C#Cc1cccc2cc(O)cc(-c3c(F)cc4c(N5CC6CCC(C5)N6)nc(OCC5(CN6CCOC7(CC7)C6)CC5)nc4c3F)c12 (single isomer, unassigned) [Compound 2B] | 0.892 | 41.3 | 13.5 | 30.3 | 1.24 |
| C#Cc1cccc2cc(O)cc(-c3ccc4c(N5CC6CCC(C5)N6)nc(OCC5(CN6CC7CCC(C6)O7)CC5)nc4c3F)c12 [Compound 8] | 31.6 | 307 | 55.3 | 21.2 | 16.8 |
| C#Cc1cccc2cc(O)cc(-c3c(F)cc4c(N5CC6CCC(C5)N6)nc(OCC5(CN6CCCOCC6)CC5)nc4c3F)c12 [Compound 37] | 6.48 | 50.1 | 89.9 | 10.9 | 4.36 |
| C#Cc1cccc2cc(O)cc(-c3ccc4c(N5CC6CCC(C5)N6)nc(OCC5(CN6CC(C)(OC)C6)CC5)nc4c3F)c12 [Compound 33] | 15.3 | 126 | 151 | 12.8 | 31.6 |
| C#Cc1cccc2cc(O)cc(-c3ccc4c(N5CC6CCC(C5)N6)nc(OCC5(CN6CC7CCCC7C6)CC5)nc4c3F)c12 (stereo not drawn) [Compound 32] | 8.82 | 93.1 | 67.1 | 34.8 | 35.5 |
| C#Cc1cccc2cc(O)cc(-c3c(F)cc4c(N5CC6CCC(C5)N6)nc(OCC5(CN6C7CCC6CC(=O)C7)CC5)nc4c3F)c12 [Compound 51] | 1.25 | 59.4 | 66 | 12.1 | 1.26 |
